Measured values taken from PubChem BioAssay AID1259407 (Chemical Carcinogenesis Research Information System (CCRIS), 2018).
Activity calls are given as the source filed them. How the calls were made is not given here.

System: CCRIS mutagenicity, Ames/micronucleus/aberration tests
Test: CCRIS mutagenicity studies
[1] = Test System: AMES SALMONELLA TYPHIMURIUM, Strain/Indicator: TA98, Metabolic Activation: NONE, Method: STANDARD PLATE
[2] = Test System: AMES SALMONELLA TYPHIMURIUM, Strain/Indicator: TA98, Metabolic Activation: RAT, LIVER, S-9, AROCLOR 1254, Method: STANDARD PLATE
[3] = Test System: AMES SALMONELLA TYPHIMURIUM, Strain/Indicator: TA100, Metabolic Activation: NONE, Method: STANDARD PLATE
[4] = Test System: AMES SALMONELLA TYPHIMURIUM, Strain/Indicator: TA100, Metabolic Activation: RAT, LIVER, S-9, AROCLOR 1254, Method: STANDARD PLATE
[5] = Test System: AMES SALMONELLA TYPHIMURIUM, Strain/Indicator: TA1535, Metabolic Activation: NONE, Method: STANDARD PLATE
[6] = Test System: AMES SALMONELLA TYPHIMURIUM, Strain/Indicator: TA1535, Metabolic Activation: RAT, LIVER, S-9, AROCLOR 1254, Method: STANDARD PLATE
[7] = Test System: AMES SALMONELLA TYPHIMURIUM, Strain/Indicator: TA1537, Metabolic Activation: NONE, Method: STANDARD PLATE
[8] = Test System: AMES SALMONELLA TYPHIMURIUM, Strain/Indicator: TA98, Metabolic Activation: NONE, Method: PREINCUBATION
[9] = Test System: AMES SALMONELLA TYPHIMURIUM, Strain/Indicator: TA100, Metabolic Activation: NONE, Method: PREINCUBATION

Q: What does the source list for `C=C1CC/C=C(/C)CC[C@@H]2[C@@H]1CC2(C)C`?
A: mutagenic call (Test System: AMES SALMONELLA TYPHIMURIUM, Strain/Indicator: TA98, Metabolic Activation: HAMSTER, LIVER, S-9, AROCLOR 1254, Method: STANDARD PLATE): inactive; negative; mutagenic call [1]: inactive; negative; mutagenic call [2]: inactive; negative; mutagenic call (Test System: AMES SALMONELLA TYPHIMURIUM, Strain/Indicator: TA100, Metabolic Activation: HAMSTER, LIVER, S-9, AROCLOR 1254, Method: STANDARD PLATE): inactive; negative; mutagenic call [3]: inactive; negative; mutagenic call [4]: inactive; negative; mutagenic call (Test System: AMES SALMONELLA TYPHIMURIUM, Strain/Indicator: TA102, Metabolic Activation: HAMSTER, LIVER, S-9, AROCLOR 1254, Method: STANDARD PLATE): inactive; negative; mutagenic call (Test System: AMES SALMONELLA TYPHIMURIUM, Strain/Indicator: TA102, Metabolic Activation: NONE, Method: STANDARD PLATE): inactive; negative; mutagenic call (Test System: AMES SALMONELLA TYPHIMURIUM, Strain/Indicator: TA102, Metabolic Activation: RAT, LIVER, S-9, AROCLOR 1254, Method: STANDARD PLATE): inactive; negative; mutagenic call (Test System: AMES SALMONELLA TYPHIMURIUM, Strain/Indicator: TA1535, Metabolic Activation: HAMSTER, LIVER, S-9, AROCLOR 1254, Method: STANDARD PLATE): inactive; negative; mutagenic call [5]: inactive; negative; mutagenic call [6]: inactive; negative; mutagenic call (Test System: AMES SALMONELLA TYPHIMURIUM, Strain/Indicator: TA1537, Metabolic Activation: HAMSTER, LIVER, S-9, AROCLOR 1254, Method: STANDARD PLATE): inactive; negative; mutagenic call [7]: inactive; negative; mutagenic call (Test System: AMES SALMONELLA TYPHIMURIUM, Strain/Indicator: TA1537, Metabolic Activation: RAT LIVER, S-9, AROCLOR 1254, Method: STANDARD PLATE): inactive; negative; mutagenic call (Test System: MOUSE LYMPHOMA, Strain/Indicator: L5178Y (TK+/TK-), Metabolic Activation: NONE, Method: SUSPENSION/PLATE): inactive; positive; reevaluation of results: negative; mutagenic call (Test System: Mouse lymphoma, Strain/Indicator: L5178Y (tk+/tk-), Metabolic Activation: Rat, Liver, S-9, Aroclor 1254, Method: Suspension/plate): equivocal

Q: `CC(=O)OCc1c(O)c(C(=O)O)c(C)c2c1OC(=O)c1c(C)cc(O)c(C=O)c1O2` was tested. Which mutagenic call [8] did it give?
A: inactive; negative

Q: What about the mutagenic call [1] of the same compound?
A: inactive; negative

Q: And the mutagenic call (Test System: AMES SALMONELLA TYPHIMURIUM, Strain/Indicator: TA98, Metabolic Activation: RAT, LIVER, S-9, Method: PREINCUBATION)?
A: inactive; negative

Q: And the mutagenic call (Test System: AMES SALMONELLA TYPHIMURIUM, Strain/Indicator: TA98, Metabolic Activation: RAT, LIVER, S-9, Method: STANDARD PLATE)?
A: inactive; negative

Q: And the mutagenic call [9]?
A: active; positive

Q: What about the mutagenic call [3] of the same compound?
A: inactive; negative

Q: What about the mutagenic call (Test System: AMES SALMONELLA TYPHIMURIUM, Strain/Indicator: TA100, Metabolic Activation: RAT, LIVER, S-9, Method: PREINCUBATION) of the same compound?
A: active; positive

Q: What about the mutagenic call (Test System: AMES SALMONELLA TYPHIMURIUM, Strain/Indicator: TA100, Metabolic Activation: RAT, LIVER, S-9, Method: STANDARD PLATE) of the same compound?
A: active; positive

Q: `C[C@H]1C[C@@]23CCC4C[C@](C)(C(=O)O)CC[C@@]4(C)[C@@H]2CC[C@]1(O)C3` (stereo partly specified) was tested. Which mutagenic call (Test System: AMES SALMONELLA TYPHIMURIUM, Strain/Indicator: TM677, Metabolic Activation: RAT, LIVER, S-9, AROCLOR 1254, Method: PREINCUBATION) did it give?
A: inactive; negative

Q: What does the source list for `COc1cc(C[C@@H]2NCCc3cc(O)c(O)cc32)cc(OC)c1OC`?
A: mutagenic call [1]: inactive; negative; mutagenic call [2]: inactive; negative; mutagenic call [3]: inactive; negative; mutagenic call [4]: inactive; negative; mutagenic call [5]: inactive; negative; mutagenic call [6]: inactive; negative; mutagenic call [7]: inactive; negative; mutagenic call (Test System: AMES SALMONELLA TYPHIMURIUM, Strain/Indicator: TA1537, Metabolic Activation: RAT, LIVER, S-9, AROCLOR 1254, Method: STANDARD PLATE): inactive; negative

Q: How did the mutagenic call (Test System: AMES SALMONELLA TYPHIMURIUM, Strain/Indicator: TA98, Metabolic Activation: NONE, Method: SUSPENSION/PLATE) turn out when `Cc1ccc(N)cc1N=Nc1cc(N)ccc1C` was run?
A: inactive; negative

Q: What about the mutagenic call (Test System: AMES SALMONELLA TYPHIMURIUM, Strain/Indicator: TA98, Metabolic Activation: RAT, LIVER, S-9, PHENOBARBITAL AND 5,6-BENZOFLAVONE, Method: SUSPENSION/PLATE) of the same compound?
A: active; positive

Q: And the mutagenic call (Test System: AMES SALMONELLA TYPHIMURIUM, Strain/Indicator: TA100, Metabolic Activation: NONE, Method: SUSPENSION/PLATE)?
A: inactive; negative

Q: What about the mutagenic call (Test System: AMES SALMONELLA TYPHIMURIUM, Strain/Indicator: TA100, Metabolic Activation: RAT, LIVER, S-9, PHENOBARBITAL AND 5,6-BENZOFLAVONE, Method: SUSPENSION/PLATE) of the same compound?
A: active; positive

Q: How did the mutagenic call (Test System: UDS HUMAN LYMPHOCYTES, Strain/Indicator: THYMIDINE INCORPORATION, Metabolic Activation: NONE, Method: LIQUID SCINTILLATION COUNTING) turn out when `O=[N+]([O-])[O-].O=[N+]([O-])[O-].O=[N+]([O-])[O-].[Gd+3]` was run?
A: active; positive

Q: What does the source list for `O=C(Cl)c1ccc(C(=O)Cl)cc1`?
A: mutagenic call [8]: active; positive; mutagenic call (Test System: AMES SALMONELLA TYPHIMURIUM, Strain/Indicator: TA98, Metabolic Activation: RAT LIVER S-9, PCB, Method: PREINCUBATION): active; positive; mutagenic call [9]: active; positive; mutagenic call (Test System: AMES SALMONELLA TYPHIMURIUM, Strain/Indicator: TA100, Metabolic Activation: RAT LIVER S-9, PCB, Method: PREINCUBATION): active; positive; mutagenic call (Test System: AMES SALMONELLA TYPHIMURIUM, Strain/Indicator: TA104, Metabolic Activation: NONE, Method: PREINCUBATION): active; positive; mutagenic call (Test System: AMES SALMONELLA TYPHIMURIUM, Strain/Indicator: TA104, Metabolic Activation: RAT LIVER S-9, PCB, Method: PREINCUBATION): active; positive; mutagenic call (Test System: E.COLI, Strain/Indicator: WP2 UVRA, Metabolic Activation: NONE, Method: PREINCUBATION): active; positive; mutagenic call (Test System: E.COLI, Strain/Indicator: WP2 UVRA, Metabolic Activation: RAT LIVER S-9, PCB, Method: PREINCUBATION): active; positive

Q: For `O=C1CC2=C(CCCC2)c2c1c1c(c3c2=CC=C3)C=CC=1`, which mutagenic call [4] is on record?
A: inactive; negative

Q: For `CC(C)NC(C)C`, which mutagenic call (Test System: AMES SALMONELLA TYPHIMURIUM, Strain/Indicator: TA98, Metabolic Activation: HAMSTER, LIVER, S-9, AROCLOR 1254 (10%), Method: PREINCUBATION) is on record?
A: inactive; negative

Q: And the mutagenic call [8]?
A: inactive; negative

Q: And the mutagenic call (Test System: AMES SALMONELLA TYPHIMURIUM, Strain/Indicator: TA98, Metabolic Activation: RAT, LIVER, S-9, AROCLOR 1254 (10%), Method: PREINCUBATION)?
A: inactive; negative

Q: What about the mutagenic call (Test System: AMES SALMONELLA TYPHIMURIUM, Strain/Indicator: TA100, Metabolic Activation: HAMSTER, LIVER, S-9, AROCLOR 1254 (10%), Method: PREINCUBATION) of the same compound?
A: inactive; negative

Q: What about the mutagenic call [9] of the same compound?
A: inactive; negative

Q: And the mutagenic call (Test System: AMES SALMONELLA TYPHIMURIUM, Strain/Indicator: TA100, Metabolic Activation: RAT, LIVER, S-9, AROCLOR 1254 (10%), Method: PREINCUBATION)?
A: inactive; negative

Q: And the mutagenic call (Test System: AMES SALMONELLA TYPHIMURIUM, Strain/Indicator: TA1535, Metabolic Activation: HAMSTER, LIVER, S-9, AROCLOR 1254 (10%), Method: PREINCUBATION)?
A: inactive; negative

Q: And the mutagenic call (Test System: AMES SALMONELLA TYPHIMURIUM, Strain/Indicator: TA1535, Metabolic Activation: NONE, Method: PREINCUBATION)?
A: inactive; negative

Q: And the mutagenic call (Test System: AMES SALMONELLA TYPHIMURIUM, Strain/Indicator: TA1535, Metabolic Activation: RAT, LIVER, S-9, AROCLOR 1254 (10%), Method: PREINCUBATION)?
A: inactive; negative

Q: And the mutagenic call (Test System: AMES SALMONELLA TYPHIMURIUM, Strain/Indicator: TA1537, Metabolic Activation: HAMSTER, LIVER, S-9, AROCLOR 1254 (10%), Method: PREINCUBATION)?
A: inactive; negative

Q: What about the mutagenic call (Test System: AMES SALMONELLA TYPHIMURIUM, Strain/Indicator: TA1537, Metabolic Activation: NONE, Method: PREINCUBATION) of the same compound?
A: inactive; negative

Q: And the mutagenic call (Test System: AMES SALMONELLA TYPHIMURIUM, Strain/Indicator: TA1537, Metabolic Activation: RAT, LIVER, S-9, AROCLOR 1254 (10%), Method: PREINCUBATION)?
A: inactive; negative

Q: `Cc1ccc2cc3c(ccc4ccccc43)c3c2c1CC3=O` was tested. Which mutagenic call (Test System: CHINESE HAMSTER V-79, Strain/Indicator: V-79/8-AZAGUANINE, Metabolic Activation: RAT, LIVER, S-9, AROCLOR 1254, Method: STANDARD PLATE) did it give?
A: active; positive
